Test results from patent US20220073536A1 (Rigel Pharmaceuticals, Inc., priority 2003, published 2022).

Tests used:
[1] = system: cultured human mast cells (CHMC); test: CHMC low cell density IgE activation: tryptase assay; type: cell-based; conditions: IgE activation
In short: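 Anti-IgE-driven degranulation of cultured human mast cells at low density, 1000–1500 cells/well, was induced over 30 min at 37 °C. It was scored by supernatant tryptase activity on a fluorogenic substrate.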

[2] = system: cultured human mast cells (CHMC); test: CHMC low cell density ionomycin activation: tryptase assay; type: cell-based; conditions: read-out: LD Tryptase, CHMC, Iono, 3 pt
[3] = Homo sapiens, Mast cell, low cell density, 3 pt, read-out: LD Tryptase, CHMC, IgE, 3 pt
[4] = Homo sapiens, Mast cell, low cell density, 8 pt, read-out: LD Tryptase, CHMC, IgE, 8 pt
[5] = Homo sapiens, Mast cell, low cell density, 3 pt
[6] = Homo sapiens, Mast cell, low cell density CHMC, tryptase release, 3 point, read-out: LD Tryptase, CHMC, IgE, 3 pt
[7] = Homo sapiens, Mast cell, low cell density CHMC, tryptase release, 3 point
[8] = low cell density CHMC, tryptase release, 3 point, read-out: LD Tryptase, CHMC, IgE, 3 pt
[9] = low cell density CHMC, tryptase release, 3 point
[10] = Homo sapiens, Mast cell, low cell density CHMC, tryptase release, 8 point, read-out: LD Tryptase, CHMC, IgE, 8 pt
[11] = low cell density CHMC, tryptase release, 8 point, read-out: LD Tryptase, CHMC, IgE, 8 pt

IC50 [1, 3] [µM] | IC50 [2, 5] [µM] | IC50 [1, 6] [µM] | IC50 [2, 7] [µM] | SMILES | also measured
< 10 | > 10 | – | – | COc1cc(Nc2ncc(F)c(Nc3ccc(C)cn3)n2)cc(OC)c1 [Compound 508, N2-(3,5-Dimethoxyphenyl)-5-fluoro-N4-(3-methylpyrid-6-yl)-2,4-pyrimidinediamine] | IC50 [1, 4]: < 10 µM
< 10 | > 10 | – | – | Cc1ccc(Nc2nc(Nc3cc(C)cc(C)c3)ncc2F)nc1 [Compound 509] | IC50 [1, 4]: < 10 µM
< 10 | > 10 | – | – | COc1cc(Nc2ncc(F)c(Nc3ccc(Cl)cn3)n2)cc(OC)c1 [Compound 510] | IC50 [1, 4]: < 10 µM
< 10 | > 10 | – | – | Fc1cnc(Nc2cccc(-c3ncon3)c2)nc1Nc1ccc2c(c1)OCCO2 [Compound 512] | –
< 10 | > 10 | – | – | COc1ccc(Nc2nc(Nc3cccc(-c4ncon4)c3)ncc2F)cc1OC [Compound 513] | –
< 10 | > 10 | – | – | CC1(C)Oc2ccc(Nc3nc(Nc4cccc(-c5ncon5)c4)ncc3F)cc2NC1=O [Compound 514, N4-(2,2-Dimethyl-3-oxo-4H-benz[1,4]oxazin-6-yl)-5-fluoro-N2-[3-(1,2,4-oxadiazol-3-yl)phenyl]-2,4-pyrimidinediamine] | –
< 10 | > 10 | – | – | COC(=O)c1cc(Nc2ncc(F)c(Nc3ccc(OC)c(OC)c3)n2)cc(-c2ncco2)c1 [Compound 515, N4-(3,4-Dimethoxyphenyl)-5-fluoro-N2-[5-methoxycarbonyl-3-(oxazol-2-yl)phenyl]-2,4-pyrimidinediamine] | –
> 10 | > 10 | – | – | COC(=O)c1cc(Nc2ncc(F)c(Nc3ccc4c(c3)OCCO4)n2)cc(-c2ncco2)c1 [Compound 516, N4-(3,4-Ethylenedioxyphenyl)-5-fluoro-N2-[5-methoxycarbonyl-3-(oxazol-2-yl)phenyl]-2,4-pyrimidinediamine] | –
> 10 | > 10 | – | – | COC(=O)c1cc(Nc2ncc(F)c(Nc3ccc4c(c3)NC(=O)C(C)(C)O4)n2)cc(-c2ncco2)c1 [Compound 517, N4-(2,2-Dimethyl-3-oxo-4H-benz[1,4]oxazin-6-yl)-5-fluoro-N2-[5-methoxycarbonyl-3-(oxazol-2-yl)phenyl]-2,4-pyrimidinediamine] | –
< 10 | > 10 | – | – | COC(=O)c1cc(Nc2ncc(F)c(Nc3cccc(O)c3)n2)cc(-c2ncco2)c1 [Compound 518, 5-Fluoro-N4-(3-hydroxyphenyl)-N2-[5-methoxycarbonyl-3-(oxazol-2-yl)phenyl]-2,4-pyrimidinediamine] | –
< 10 | > 10 | – | – | Fc1cnc(Nc2cc(-c3ncco3)cc(C(F)(F)F)c2)nc1Nc1ccc2c(c1)OCCO2 [Compound 519, N4-(3,4-Ethylenedioxyphenyl)-5-fluoro-N2-[3-(oxazol-2-yl)-5-trifluoromethylphenyl]-2,4-pyrimidinediamine] | –
< 10 | > 10 | – | – | COc1ccc(Nc2nc(Nc3cc(-c4ncco4)cc(C(F)(F)F)c3)ncc2F)cc1OC [Compound 520, N4-(3,4-Dimethoxyphenyl)-5-fluoro-N2-[3-(oxazol-2-yl)-5-trifluoromethylphenyl]-2,4-pyrimidinediamine] | –
< 10 | > 10 | – | – | CC1(C)Oc2ccc(Nc3nc(Nc4cc(-c5ncco5)cc(C(F)(F)F)c4)ncc3F)cc2NC1=O [Compound 521, N4-(2,2-Dimethyl-3-oxo-4H-benz[1,4]oxazin-6-yl)-5-fluoro-N2-[3-(oxazol-2-yl)-5-trifluoromethylphenyl]-2,4-pyrimidinediamine] | –
– | – | > 10 | > 10 | CC(C)Oc1ccc(N(C)c2nc(Cl)ncc2F)cn1 [Compound 576] | –
– | – | < 10 | > 10 | COc1cc(Nc2ncc(F)c(N(C)c3ccc(OC)c(Cl)c3)n2)cc(OC)c1 [Compound 577] | –
– | – | < 10 | > 10 | COc1ccc(N(C)c2nc(Nc3cc(C)c(OC)c(Cl)c3)ncc2F)cc1Cl [Compound 578, N2-(3-Chloro-4-methoxy-5-methylphenyl)-N4-(3-chloro-4-methoxyphenyl)-5-fluoro-N4-methyl-2,4-pyrimidinediamine] | –
– | – | – | – | CNC(=O)COc1c(C)cc(Nc2ncc(F)c(N(C)c3ccc(OC)c(Cl)c3)n2)cc1C [Compound 579, N4-(3-Chloro-4-methoxyphenyl)-N2-[3,5-dimethyl-4-(N-methylamino)carbonylmethyleneoxyphenyl]-5-fluoro-N4-methyl-2,4-pyrimidinediamine] | IC50 [1, 8]: < 10 µM; IC50 [2, 9]: > 10 µM
– | – | – | – | CNC(=O)COc1cccc(Nc2ncc(F)c(N(C)c3ccc(OC)c(Cl)c3)n2)c1 [Compound 580, N4-(3-Chloro-4-methoxyphenyl)-N2-[3-(N-methylamino)carbonylmethyleneoxyphenyl]-5-fluoro-N4-methyl-2,4-pyrimidinediamine] | IC50 [1, 8]: < 10 µM; IC50 [2, 9]: > 10 µM
– | – | < 10 | > 10 | COc1cc(Nc2ncc(F)c(N(C)c3ccc(OC(C)C)nc3)n2)cc(OC)c1 [Compound 581, N2-(3,5-Dimethoxyphenyl)-5-fluoro-N4-(2-isopropoxypyrid-5-yl)-N4-methyl-2,4-pyrimidinediamine] | –

IC50 [1, 3] [µM] | IC50 [2, 5] [µM] | IC50 [1, 6] [µM] | IC50 [2, 7] [µM] | SMILES | also measured
– | – | – | – | CNC(=O)COc1cccc(Nc2ncc(F)c(N(C)c3ccc(OC(C)C)nc3)n2)c1 [Compound 582, 5-Fluoro-N4-(2-isopropoxypyrid-5-yl)-N4-methyl-N2-[3-(N-methylamino)carbonylmethyleneoxyphenyl]-2,4-pyrimidinediamine] | IC50 [1, 8]: < 10 µM; IC50 [2, 9]: > 10 µM
– | – | < 10 | > 10 | Cc1cc(C)cc(Nc2ncc(F)c(N(C)c3ccc(OC(C)C)nc3)n2)c1 [Compound 583, N2-(3,5-Dimethylphenyl)-5-fluoro-N4-(2-isopropoxypyrid-5-yl)-N4-methyl-2,4-pyrimidinediamine] | –
– | – | < 10 | > 10 | COc1ccc(N(C)c2nc(Nc3cc(C)cc(C)c3)ncc2F)cc1Cl [Compound 584] | –
– | – | > 10 | > 10 | COC(=O)c1cc2cc(Nc3ncc(F)c(N(C)c4ccc(OC)c(Cl)c4)n3)ccc2o1 [Compound 585, N4-(3-Chloro-4-methoxyphenyl)-5-fluoro-N2-(2-methoxycarbonylbenzofuran-5-yl)-N4-methyl-2,4-pyrimidinediamine] | –
– | – | < 10 | < 10 | COC(=O)c1cc2cc(Nc3ncc(F)c(N(C)c4ccc(OC(C)C)nc4)n3)ccc2o1 [Compound 586, 5-Fluoro-N4-(2-isopropoxypyrid-5-yl)-N2-(2-methoxycarbonylbenzofuran-5-yl)-N4-methyl-2,4-pyrimidinediamine] | –
– | – | < 10 | > 10 | COc1cc(Nc2ncc(F)c(N(C)c3ccc(Cl)c(OC)c3)n2)cc(OC)c1 [Compound 587, N4-(4-Chloro-3-methoxyphenyl)-N2-(3,5-dimethoxyphenyl)-5-fluoro-N4-methyl-2,4-pyrimidinediamine] | IC50 [1, 10]: < 10 µM
– | – | < 10 | > 10 | COc1cc(N(C)c2nc(Nc3cc(C)cc(C)c3)ncc2F)ccc1Cl [Compound 588] | –
– | – | – | – | CNC(=O)COc1cccc(Nc2ncc(F)c(N(C)c3ccc(Cl)c(OC)c3)n2)c1 [Compound 589, N4-(4-Chloro-3-methoxyphenyl)-5-fluoro-N4-methyl-N2-[3-(N-methylamino)carbonylmethyleneoxyphenyl]-2,4-pyrimidinediamine] | IC50 [1, 8]: < 10 µM; IC50 [1, 11]: < 10 µM; IC50 [2, 9]: > 10 µM
– | – | < 10 | > 10 | COc1cc(N(C)c2nc(Nc3ccc4[nH]ccc4c3)ncc2F)ccc1Cl [Compound 590, N4-(4-Chloro-3-methoxyphenyl)-5-fluoro-N2-(indol-5-yl)-N4-methyl-2,4-pyrimidinediamine] | IC50 [1, 10]: < 10 µM
– | – | < 10 | > 10 | COc1cc(Nc2ncc(F)c(N(C)c3cc(C)c(Cl)c(C)c3)n2)cc(OC)c1 [Compound 591] | IC50 [1, 10]: < 10 µM
– | – | > 10 | > 10 | Cc1cc(C)cc(Nc2ncc(F)c(N(C)c3cc(C)c(Cl)c(C)c3)n2)c1 [Compound 592] | –
– | – | – | – | CNC(=O)COc1cccc(Nc2ncc(F)c(N(C)c3cc(C)c(Cl)c(C)c3)n2)c1 [Compound 593, N4-(4-Chloro-3,5-dimethylphenyl)-5-fluoro-N4-methyl-N2-[3-(N-methylamino)carbonylmethyleneoxyphenyl]-2,4-pyrimidinediamine] | IC50 [1, 8]: < 10 µM; IC50 [1, 11]: < 10 µM; IC50 [2, 9]: > 10 µM
– | – | < 10 | < 10 | Cc1cc(N(C)c2nc(Nc3ccc4[nH]ccc4c3)ncc2F)cc(C)c1Cl [Compound 594] | IC50 [1, 10]: < 10 µM
– | – | > 10 | > 10 | COC(=O)c1cc2cc(Nc3ncc(F)c(N(C)c4cc(C)c(Cl)c(C)c4)n3)ccc2o1 [Compound 595] | –
– | – | > 10 | > 10 | Cc1cc(N(C)c2nc(Nc3ccc(-c4ncco4)cc3)ncc2F)cc(C)c1Cl [Compound 596] | –
– | – | < 10 | > 10 | Cc1cc(N(C)c2nc(Nc3cccc(-c4cnco4)c3)ncc2F)cc(C)c1Cl [Compound 597] | –
– | – | < 10 | > 10 | Cc1cc(N(C)c2nc(Nc3ccc(-c4cnco4)cc3)ncc2F)cc(C)c1Cl [Compound 598] | –
– | – | < 10 | > 10 | Cc1cc(N(C)c2nc(Nc3ccc4cc[nH]c4c3)ncc2F)cc(C)c1Cl [Compound 599] | –
